Laboratory results taken from paper PMC5428354, “Screening of a natural compound library identifies emodin, a natural compound from Rheum palmatum Linn that inhibits DPP4” (PeerJ, 2017).
Several values for one entry are separate records, joined by “and”; a condition that tells them apart may be missing. Identical values can stand only once. Like-named read-outs stand apart in the source and are kept apart here.

Key:
Assay type in all cases: biochemical
DPP8 = DPP8 (Homo sapiens, UniProt Q6V1X1); assay: DPP8 activity assay (BPS Bioscience kit); details: 100 µM; Exp #1-#5; DMSO = Ctrl
Sequence of DPP8 (Q6V1X1 whole entry): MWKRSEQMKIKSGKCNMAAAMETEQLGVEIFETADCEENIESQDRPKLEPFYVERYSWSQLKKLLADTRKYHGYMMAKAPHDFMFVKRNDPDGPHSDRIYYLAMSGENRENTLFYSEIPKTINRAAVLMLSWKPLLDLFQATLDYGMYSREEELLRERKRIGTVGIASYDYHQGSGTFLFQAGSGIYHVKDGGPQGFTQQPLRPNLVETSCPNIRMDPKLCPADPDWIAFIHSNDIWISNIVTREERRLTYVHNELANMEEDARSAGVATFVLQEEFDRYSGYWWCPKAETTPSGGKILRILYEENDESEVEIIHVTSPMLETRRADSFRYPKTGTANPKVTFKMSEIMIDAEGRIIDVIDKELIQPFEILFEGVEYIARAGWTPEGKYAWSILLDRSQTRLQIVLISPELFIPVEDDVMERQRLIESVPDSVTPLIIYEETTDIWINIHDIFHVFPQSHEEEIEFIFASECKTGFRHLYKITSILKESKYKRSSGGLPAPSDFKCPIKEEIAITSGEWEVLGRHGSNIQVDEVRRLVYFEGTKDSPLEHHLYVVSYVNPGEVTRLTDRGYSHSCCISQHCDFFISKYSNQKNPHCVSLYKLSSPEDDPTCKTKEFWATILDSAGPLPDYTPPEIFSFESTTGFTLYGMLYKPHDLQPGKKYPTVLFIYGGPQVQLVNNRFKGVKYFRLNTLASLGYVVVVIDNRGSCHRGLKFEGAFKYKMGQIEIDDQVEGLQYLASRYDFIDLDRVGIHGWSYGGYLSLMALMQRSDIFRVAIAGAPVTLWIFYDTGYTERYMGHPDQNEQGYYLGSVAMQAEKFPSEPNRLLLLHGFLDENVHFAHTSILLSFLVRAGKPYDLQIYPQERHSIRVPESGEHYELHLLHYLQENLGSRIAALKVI
Method: A DPP8 assay kit was purchased from BPS Bioscience (Cat# 800208), and the assay protocol was followed to test for inhibitory activity on DPP8. Briefly, DPP substrate 1 was diluted to make a 100 µM stock solution, and DPP8 protein was diluted in DPP assay buffer to 2 ng/µl (20 ng/reaction). For the tested compounds, 10 µl of diluted DPP8 protein, 5 µl of diluted DPP substrate 1, 84 µl of DPP assay buffer and 1 µl of inhibitor were addedinto the assay system for a total volume of 100 µl. The reaction mixtures were prepared in duplicate on a 96-well plate and incubated at room temperature for 10 min. […]

DPP9 = molecular target: T1, DPP9 (Homo sapiens, UniProt Q86TI2); assay: DPP9 activity assay (BPS Bioscience kit); details: 100 µM, Well #1-#3;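 for DPP9 assay, Emission (450 nm): 20 ng DPP9 per 100 µl reaction with DPP substrate 1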
T1 construct: purchased BPS Bioscience 800209
T1 sequence (Q86TI2 whole entry): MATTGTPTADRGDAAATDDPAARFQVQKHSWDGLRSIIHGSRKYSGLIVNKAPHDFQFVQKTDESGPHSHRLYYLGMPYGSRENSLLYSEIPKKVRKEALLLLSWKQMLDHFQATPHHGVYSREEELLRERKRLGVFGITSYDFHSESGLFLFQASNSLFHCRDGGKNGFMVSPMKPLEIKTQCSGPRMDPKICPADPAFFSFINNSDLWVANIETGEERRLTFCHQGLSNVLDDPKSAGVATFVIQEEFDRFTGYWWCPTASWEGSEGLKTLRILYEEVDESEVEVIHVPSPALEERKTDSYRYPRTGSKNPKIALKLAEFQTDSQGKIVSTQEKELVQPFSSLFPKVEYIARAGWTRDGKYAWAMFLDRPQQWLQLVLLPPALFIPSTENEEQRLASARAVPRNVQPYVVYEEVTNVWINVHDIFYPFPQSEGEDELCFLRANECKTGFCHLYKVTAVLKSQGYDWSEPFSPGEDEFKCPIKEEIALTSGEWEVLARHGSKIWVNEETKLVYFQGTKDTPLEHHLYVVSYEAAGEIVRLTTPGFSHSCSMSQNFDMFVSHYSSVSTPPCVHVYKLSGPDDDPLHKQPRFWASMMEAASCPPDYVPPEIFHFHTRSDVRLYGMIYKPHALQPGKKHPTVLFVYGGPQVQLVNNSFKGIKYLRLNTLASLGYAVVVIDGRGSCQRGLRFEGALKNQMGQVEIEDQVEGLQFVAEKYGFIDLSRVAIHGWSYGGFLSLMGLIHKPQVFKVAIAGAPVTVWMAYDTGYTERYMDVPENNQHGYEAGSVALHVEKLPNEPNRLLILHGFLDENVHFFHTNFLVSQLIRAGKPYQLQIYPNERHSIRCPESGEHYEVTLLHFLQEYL

DPP4 = DPP4 (Homo sapiens, UniProt P27487); assay: DPP4 activity assay (DPP4 inhibitor screening assay kit, Cayman); parameters: purchased Cayman Chemical, Ann Arbor, MI, USA; details: 0.5 h, 10 µM, control mean 100.0;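 note: fluorescence read at excitation 360 nm and emission 460 nm after the enzyme reaction ran 30 min at 37 °C in a 96-well plate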
Sequence of DPP4 (P27487 whole entry): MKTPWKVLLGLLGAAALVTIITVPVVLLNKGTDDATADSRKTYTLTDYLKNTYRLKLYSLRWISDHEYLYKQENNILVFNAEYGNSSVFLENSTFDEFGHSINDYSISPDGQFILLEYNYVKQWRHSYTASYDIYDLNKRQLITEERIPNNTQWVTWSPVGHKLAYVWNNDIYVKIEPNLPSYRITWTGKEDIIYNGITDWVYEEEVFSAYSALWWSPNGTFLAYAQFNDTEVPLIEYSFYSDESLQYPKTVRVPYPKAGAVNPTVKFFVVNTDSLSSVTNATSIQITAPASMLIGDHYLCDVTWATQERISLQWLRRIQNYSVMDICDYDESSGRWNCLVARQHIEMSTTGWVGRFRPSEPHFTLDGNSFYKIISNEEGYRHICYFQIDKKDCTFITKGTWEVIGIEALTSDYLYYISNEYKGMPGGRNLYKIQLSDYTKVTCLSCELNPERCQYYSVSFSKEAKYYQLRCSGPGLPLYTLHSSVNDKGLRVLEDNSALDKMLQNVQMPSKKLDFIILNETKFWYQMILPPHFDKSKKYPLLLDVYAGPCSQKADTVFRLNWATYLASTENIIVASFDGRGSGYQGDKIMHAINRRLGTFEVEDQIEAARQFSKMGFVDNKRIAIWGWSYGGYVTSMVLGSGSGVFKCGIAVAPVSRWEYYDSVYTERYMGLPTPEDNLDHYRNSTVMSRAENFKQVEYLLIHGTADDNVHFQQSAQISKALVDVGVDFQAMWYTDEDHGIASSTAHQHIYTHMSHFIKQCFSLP

- DPP9 assay, Emission (450 nm) (DPP9): 49845 and 45873 and 51642
- remaining activity at 10 µM (DPP4; Figure 1A raw data, read-out: DPP4 activity in library screen, Exp 1): 44.7%
- remaining activity at 10 µM (DPP4; Figure 1A raw data, read-out: DPP4 activity in library screen, Exp 2): 52.2%
- remaining activity at 10 µM (DPP4; Figure 1A raw data, read-out: DPP4 activity in library screen, Exp 3): 53.9%
- remaining activity at 10 µM (DPP4; mean of Exp 1-3, read-out: DPP4 activity in library screen, Mean): 50.3%
Compound: COc1cc(O)c2c(c1)C(=O)c1cc(C)cc(O)c1C2=O [Rheochrysidin]
- DPP8 activity (DPP8): 78.2 % of Ctrl and 100.6 % of Ctrl and 89.5 % of Ctrl and 95.0 % of Ctrl and 106.4 % of Ctrl
- DPP9 activity (DPP9; DMSO = Ctrl): 102.3 % of Ctrl and 94.2 % of Ctrl and 106.0 % of Ctrl
